{
  "source": "patent US12090204B2",
  "about": "“Photodynamic therapy compositions and methods of use thereof” (Pinnacle Biologics, Inc., priority 2020, dated 2024)",
  "key": {"[1]": {"tested_on": "Moraxella catarrhalis, Methicillin resistant Staphylococcus aureus (MRSA), Porphymonas gingivalis, Cutibacterium acnes, Peptostreptococcus anaerobius …", "test": "aPDT on 48 hour biofilms of various strains, CFU (FIG. 2)", "type": "cell-based", "procedure": "Biofilms were formed on glass coupons in culture dishes containing a bacterial inoculum for 48 hours under conditions specific to the strain. The glass coupon attached biofilms were then rinsed with saline, by dipping method, prior to the administration of the porfimer sodium. The biofilms were incubated in the dark for 15-30 minutes with a reconstituted saline solution of porfimer sodium at final concentrations ranging from 75 μg/ml-250 μg/ml. The porfimer sodium treated biofilms were then exposed to light doses at 630 nm light of 50-200 J/cm^2 at a power density of 150 milliwatts per cm^2. The light was delivered using a fiberoptic with a lens attached at the distal end to provide a uniform light field over the area of the samples being treated. The accuracy of the wavelength delivered was routinely checked using an Optometrics USA Inc. 1 nm/div monochromator. Power output of the laser was measured using a UDT/Gamma Scientific 371 optical power meter and an integrating sphere. Control samples were 1) bacterial suspensions without any light or porfimer sodium (NLNP); and 2) porfimer sodium alone in bacterial suspension without any light (NLP) and 3) light alone (L). The light alone control was exposed to the highest light dose used in that particular experiment. Light doses are in joules/cm^2. Power density was 150 mW/cm^2 for each in vitro trial. […]"}, "F. nucleatum (−)": {"tested_on": "F. nucleatum (−)", "test": "porfimer sodium aPDT, 48 hour biofilm culture", "type": "cell-based, Fusobacterium nucleatum", "details": "630 nm, kill at 100 J/cm2 (light dose 75-100 J/cm2), porfimer sodium 250 μg/mL", "procedure": "(§1) Bacteria were routinely cultured using tryptic soy broth or agar at 37° C. in a 5% CO2 incubator. Bacteria were isolated and suspended with 0.9% NaCl to an Optical Density (OD) of 0.1 taken at 630 nm, to generate the inoculum used for either planktonic or biofilm assays.\n(§2) The colony forming units (CFU) per mL of the starting inoculum for every experiment was determined by dilution plating. Control samples were exposed to laser at 630 nm in the absence of porfimer sodium, porfimer sodium in the absence of laser exposure, or in saline alone in the absence of porfimer sodium and 630 nm laser light. All experimental samples were dilution plated to enumerate viable CFU's. Three independent replicates were performed for each reaction condition per strain per assay. […]\n(§3) Bacteria were exposed to 630 nm laser light via a fiber optic with a lens affixed to the distal end to provide a uniform diverging light field. […] Power output of the laser was measured using a UDT/Gamma Scientific 371 optical power meter and an integrating sphere. […]\n(§4) Biofilms were formed on glass coupons in culture dishes containing a bacterial inoculum for 48 hours under conditions specific to the strain. […] Power output of the laser was measured using a UDT/Gamma Scientific 371 optical power meter and an integrating sphere. […]"}, "MRSA (+)": {"tested_on": "MRSA (+)", "test": "porfimer sodium aPDT, planktonic culture", "type": "cell-based, methicillin-resistant Staphylococcus aureus", "details": "630 nm, 200 J/cm2, porfimer sodium 125 μg/mL", "procedure": "as §1\nExperiments using planktonic cultures were carried out using M. catarrhalis, as a standard for further comparisons and to determine the effective drug concentration, porfimer sodium incubation time and light dose parameters which would provide an effective cell kill at the level of 5-7 logs. Once determined the experiments were repeated for all other bacterial strains examined.\nThe colony forming units (CFU) per mL of the starting inoculum for every experiment was determined by dilution plating. […]\nas §3, §4"}, "P. gingivalis (−)": {"tested_on": "P. gingivalis (−)", "test": "porfimer sodium aPDT, 48 hour biofilm culture", "type": "cell-based, Porphyromonas gingivalis", "details": "630 nm, kill at 100 J/cm2 (light dose 75-100 J/cm2), porfimer sodium 250 μg/mL", "procedure": "as §1, §2, §3, §4"}, "[2]": {"tested_on": "methicillin-resistant Staphylococcus aureus (MRSA), Staphylococcus aureus ATCC BAA 1768", "test": "partial thickness wound model, microbial load in tissue biopsy (Example 4)", "type": "in vivo, Yorkshire pig", "details": "for TISSUE BIOPSY (CFU/mm^2) 24 hr. after treatment 2: individual wounds", "procedure": "Bacteria strains were obtained from ATCC (Manassas, VA). Bacteria were propagated from glycerol stock store at −80° C. A stab of the glycerol stock was used to inoculate 5 mL of trypticase soy broth. The cultures were incubated overnight at 37° C. with shaking at 250 rpm. The following day, a portion of overnight culture was used to prepare a streak plate onto an Oxacillin screen plate which was incubated overnight at 37° C. and single colony isolates of freshly plated bacteria were used to prepare bacterial inoculum. The morning of wounding an infection, a portion of overnight culture was used to inoculate 50 mL of trypticase soy broth and the newly inoculated media was incubated at 37° C. with shaking at 250 rpm until log phase growth was reached. The bacteria were pelleted by centrifugation at 4,000 rpm at 4° C. for 10 minutes in a Sorval tabletop centrifuge. The culture supernatant was discarded, and the bacterial pellets were suspended in a volume of sterile PBS to yield a concentration of 2×10^7 CFU/mL.\nTissue samples were obtained using an 8 mm biopsy punch. The biopsy punch was placed into a homogenization tube containing 1 mL of sterile PBS and stainless steel homogenization beads and the tissues were homogenized in a Reich MM300 mixer mill homogenizer. Serial 10-fold dilutions of the tissue homogenates were prepared in sterile PBS and 100 microliters of select dilutions for each wound were plated onto agar plates. The plates were incubated at 35-37° C. and the colonies were enumerated manually. Microbial loads were normalized at CFU/mm^2 of tissue surface area per punch.\nThis study evaluated the ability of porfimer sodium to reduce/eliminate microbial colonization and biofilm from surgical sites in a partial thickness would healing model. The study was conducted in a single female Yorkshire pig over the course of five days. A dermatome was used to create 20 partial thickness wounds. Sixteen of the wounds were infected with methicillin-resistant Staphylococcus aureus (MRSA), and four were designated as uninfected controls. The wounds were bandaged and the bacterial biofilm allowed to develop for 48 hours.\nDesignated infected wounds were subjected to two courses of treatment with the test article at a periodicity of 24 hours. […]\nTreatments consisted of application of the test article followed by photoactivation with one or two intensities of light, 150 J/cm^2 or 200 J/cm^2 (Table 3). Wounds were evaluated for microbial load prior to each course of treatment, immediately following the final treatment and 24 hours following the final treatment. […]"}, "P. anaerobius (+)": {"tested_on": "P. anaerobius (+)", "test": "porfimer sodium aPDT, 48 hour biofilm culture", "type": "cell-based, Peptostreptococcus anaerobius", "details": "630 nm, kill at 100 J/cm2 (light dose 75-100 J/cm2), porfimer sodium 250 μg/mL", "procedure": "as §1, §2, §3, §4"}},
  "note": "Several values for one entry are separate records, joined by “and”; a condition that tells them apart may be missing. Identical values can stand only once.",
  "data": [
    {"substance": "porfimer sodium", "values": [
      {"measurement": "decrease of viability of the bacteria in biofilm", "setting": "[1]; depending on the dose", "value": "2-7 logs"},
      {"measurement": "log reduction at the highest light doses (complete reduction, all strains examined)", "setting": "[1]; highest light doses used", "value": "~7", "unit": "log reduction"},
      {"measurement": "Rate of kill", "setting": "F. nucleatum (−)", "value": 3, "unit": "Log"},
      {"measurement": "Rate of kill", "setting": "MRSA (+)", "value": ">6", "unit": "Log"},
      {"measurement": "Rate of kill", "setting": "P. gingivalis (−)", "value": 7, "unit": "Log"},
      {"measurement": "Mean microbial load, Tissue", "setting": "[2]; Group 3 (150 J/cm^2), N 6", "value": "8.13E+03", "unit": "CFU/mm^2"},
      {"measurement": "TISSUE BIOPSY (CFU/mm^2) 24 hr. after treatment 2", "setting": "[2]; Group 3 = 150 J/cm2 treatment", "value": "4.28E+03 CFU/mm^2 and 1.57E+04 CFU/mm^2 and 2.78E+03 CFU/mm^2 and 4.73E+03 CFU/mm^2 and 1.05E+04 CFU/mm^2"},
      {"measurement": "Mean microbial load, Tissue", "setting": "[2]; Group 4 (200 J/cm^2), N 3, without wounds L6, R5, R9", "value": "2.64E+03", "unit": "CFU/mm^2"},
      {"measurement": "TISSUE BIOPSY (CFU/mm^2) 24 hr. after treatment 2", "setting": "[2]; Group 4 = 200 J/cm2 treatment", "value": "6.27E+03 CFU/mm^2 and 5.47E+02 CFU/mm^2 and 1.11E+03 CFU/mm^2 and 8.35E+03 CFU/mm^2 and 3.36E+03 CFU/mm^2"},
      {"measurement": "Rate of kill", "setting": "P. anaerobius (+)", "value": ">6", "unit": "Log"}
    ]}
  ]
}
